From PubChem BioAssay AID2060331 (Molecular Pharmacology Branch, DTP, NCI, 2025)

System: Hs578T multi-cell spheroids, viability
Assay: Anticancer human tumor Hs578T cell line growth inhibition [IpAb];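 note: drug exposure lasted 7 days before readout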
Settings: for IC50: curve of first compound; for viability, T/C: stronger effect = lower value
In short: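 Combinations with ipatasertib or abemaciclib were tested on tumour spheroids holding HUVEC (25%) and MSC (15%) alongside 60% malignant cells. Top concentration was at or near clinical Cmax (10 microM if undefined), descending in half-log steps.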

[1] = second compound 0.1 µM, first compound 0.0316 µM
[2] = second compound 0.1 µM, first compound 0.1 µM
[3] = second compound 0.1 µM, first compound 0.316 µM
[4] = second compound 0.1 µM, first compound 1 µM
[5] = second compound 0.316 µM, first compound 0.0316 µM
[6] = second compound 0.316 µM, first compound 0.1 µM
[7] = second compound 0.316 µM, first compound 0.316 µM
[8] = second compound 0.316 µM, first compound 1 µM
[9] = second compound 1 µM, first compound 0.0316 µM
[10] = second compound 1 µM, first compound 0.1 µM
[11] = second compound 1 µM, first compound 0.316 µM
[12] = second compound 1 µM, first compound 1 µM
[13] = second compound 3.16 µM, first compound 0.0316 µM
[14] = second compound 3.16 µM, first compound 0.1 µM
[15] = second compound 3.16 µM, first compound 0.316 µM
[16] = second compound 3.16 µM, first compound 1 µM
[17] = second compound 10 µM, first compound 0.0316 µM
[18] = second compound 10 µM, first compound 0.1 µM
[19] = second compound 10 µM, first compound 0.316 µM
[20] = second compound 10 µM, first compound 1 µM

Row | SMILES | IC50 (second compound 0.1 µM) | IC50 (second compound 0.316 µM) | IC50 (second compound 1 µM) | IC50 (second compound 3.16 µM) | IC50 (second compound 10 µM) | viability, T/C [1] | viability, T/C [2] | viability, T/C [3] | viability, T/C [4] | viability, T/C [5] | viability, T/C [6] | viability, T/C [7] | viability, T/C [8] | viability, T/C [9] | viability, T/C [10] | viability, T/C [11] | viability, T/C [12] | viability, T/C [13] | viability, T/C [14] | viability, T/C [15] | other results
1 | Cn1nccc1Nc1nccc(-c2ccn(C(CO)c3ccc(Cl)c(F)c3)c(=O)c2)n1 (stereo not given) + CC(C)NCC(C(=O)N1CCN(c2ncnc3c2C(C)CC3O)CC1)c1ccc(Cl)cc1 | 4560 nM | 2610 nM | 1520 nM | 626 nM | 138 nM | 106% | 109% | 111% | 76.8% | 91.5% | 90.5% | 94.3% | 60.9% | 65.8% | 73.5% | 77.7% | 54.3% | 62.2% | 61.6% | 61.7% | viability, T/C (second compound 0.1 µM, first compound 3.16 µM): 59.4%; viability, T/C (second compound 0.1 µM, first compound 10 µM): 37.9%; viability, T/C (second compound 0.316 µM, first compound 3.16 µM): 50.9%; viability, T/C (second compound 0.316 µM, first compound 10 µM): 23.6%; viability, T/C (second compound 1 µM, first compound 3.16 µM): 36.2%; viability, T/C (second compound 1 µM, first compound 10 µM): 14.1%; viability, T/C [16]: 42.4%; viability, T/C (second compound 3.16 µM, first compound 3.16 µM): 16.3%; viability, T/C (second compound 3.16 µM, first compound 10 µM): 2.55%; viability, T/C [17]: 48.1%; viability, T/C [18]: 55.6%; viability, T/C [19]: 45.6%; viability, T/C [20]: 31.1%; viability, T/C (second compound 10 µM, first compound 3.16 µM): 3.87%; viability, T/C (second compound 10 µM, first compound 10 µM): 0.64%
2 | COc1c(OCCCN2CCOCC2)ccc2c3n(c(=NC(=O)c4cnc(N)nc4)nc12)CCN3 + CC(C)NCC(C(=O)N1CCN(c2ncnc3c2C(C)CC3O)CC1)c1ccc(Cl)cc1 | 33.2 nM | 18.8 nM | 8.74 nM | 3.84 nM | < 3.16 nM | 47.4% | 31% | 15% | 5.13% | 43.5% | 27% | 14.7% | 5.04% | 36.6% | 24.9% | 14.8% | 5.35% | 39.3% | 25.2% | 15.1% | viability, T/C (second compound 0.1 µM, first compound 0.00316 µM): 90.4%; viability, T/C (second compound 0.1 µM, first compound 0.01 µM): 76.8%; viability, T/C (second compound 0.316 µM, first compound 0.00316 µM): 81.7%; viability, T/C (second compound 0.316 µM, first compound 0.01 µM): 56.4%; viability, T/C (second compound 1 µM, first compound 0.00316 µM): 57.7%; viability, T/C (second compound 1 µM, first compound 0.01 µM): 50%; viability, T/C (second compound 3.16 µM, first compound 0.00316 µM): 51.3%; viability, T/C (second compound 3.16 µM, first compound 0.01 µM): 44.5%; viability, T/C [16]: 5%; viability, T/C (second compound 10 µM, first compound 0.00316 µM): 45.5%; viability, T/C (second compound 10 µM, first compound 0.01 µM): 43.9%; viability, T/C [17]: 33.6%; viability, T/C [18]: 20.3%; viability, T/C [19]: 13.2%; viability, T/C [20]: 3.28%
